# Where a name gives a salt, the structure may show the parent alone. Read-outs that look alike come from different tables or passages of the source.
# Legend:
# Rat FAAH = molecular target: T1, Rat FAAH (Rattus norvegicus, UniProt P97612); test: Assay Method 2: rat FAAH assay (3H-anandamide hydrolysis in cell homogenate); assay type: biochemical
# T1 construct: expressed in transfected cells; host or cells: SK-N-MC cells stably transfected with rat FAAH cDNA (G418 selection)
# T1 sequence (P97612 1-579): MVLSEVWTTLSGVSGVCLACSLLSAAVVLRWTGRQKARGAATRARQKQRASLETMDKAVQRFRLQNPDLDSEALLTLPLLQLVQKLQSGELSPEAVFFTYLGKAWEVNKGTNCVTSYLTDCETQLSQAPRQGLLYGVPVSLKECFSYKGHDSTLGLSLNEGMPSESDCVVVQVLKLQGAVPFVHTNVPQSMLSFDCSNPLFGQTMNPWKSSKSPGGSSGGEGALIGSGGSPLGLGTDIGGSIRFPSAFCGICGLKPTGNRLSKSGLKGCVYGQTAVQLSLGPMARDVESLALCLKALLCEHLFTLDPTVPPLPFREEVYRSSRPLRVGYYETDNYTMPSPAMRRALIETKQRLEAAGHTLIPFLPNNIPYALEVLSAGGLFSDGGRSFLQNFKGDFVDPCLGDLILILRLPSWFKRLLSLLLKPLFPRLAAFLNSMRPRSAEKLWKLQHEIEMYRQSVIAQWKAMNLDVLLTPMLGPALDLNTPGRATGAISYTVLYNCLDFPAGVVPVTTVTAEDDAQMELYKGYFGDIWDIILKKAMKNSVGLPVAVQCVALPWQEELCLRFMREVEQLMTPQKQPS
# In short: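 Homogenates of T84 cells or SK-N-MC cells stably transfected with rat FAAH, in pH 9 Tris/EDTA/glycerol/Triton buffer, incubated 1 h at room temperature with 3H-anandamide. Released labeled ethanolamine separated from substrate on activated charcoal and counted by scintillation; values averaged over runs.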
# FAAH = molecular target: T2, FAAH (Homo sapiens, UniProt O00519); test: Assay Method 1: human FAAH assay (3H-anandamide hydrolysis in cell homogenate); assay type: biochemical; design: expressed in transfected cells; host or cells: SK-N-MC cells stably transfected with human FAAH cDNA (G418 selection); alternatively T84 cell pellets
# T2 sequence (O00519 1-579): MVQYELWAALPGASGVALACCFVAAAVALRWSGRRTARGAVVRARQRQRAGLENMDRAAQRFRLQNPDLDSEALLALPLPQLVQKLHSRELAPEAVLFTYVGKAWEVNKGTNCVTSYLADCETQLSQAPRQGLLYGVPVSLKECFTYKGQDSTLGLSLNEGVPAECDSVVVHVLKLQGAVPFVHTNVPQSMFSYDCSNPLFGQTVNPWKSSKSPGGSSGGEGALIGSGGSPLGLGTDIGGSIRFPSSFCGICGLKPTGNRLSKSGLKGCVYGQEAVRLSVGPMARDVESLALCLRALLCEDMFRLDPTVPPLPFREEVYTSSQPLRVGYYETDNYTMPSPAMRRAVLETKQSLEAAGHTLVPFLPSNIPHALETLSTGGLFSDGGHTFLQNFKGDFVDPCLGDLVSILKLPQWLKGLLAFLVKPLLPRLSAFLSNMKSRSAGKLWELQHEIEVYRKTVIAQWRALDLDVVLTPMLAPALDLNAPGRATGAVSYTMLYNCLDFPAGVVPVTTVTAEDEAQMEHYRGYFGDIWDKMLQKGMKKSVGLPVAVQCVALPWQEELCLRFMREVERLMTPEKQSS
# In short: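 Homogenates of T84 cells or SK-N-MC cells stably transfected with human FAAH, in pH 9 Tris/EDTA buffer with 0.02% Triton X-100. Incubated 1 h at rt with compound and 80 nM (final) [3H-ethanolamine]-anandamide. Released 3H-ethanolamine separated on charcoal filters and counted by scintillation.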
IC50 (FAAH; read-out: Assay 1 IC50),IC50 (Rat FAAH; read-out: Assay 2 IC50),SMILES,IC50 (Rat FAAH),IC50 (FAAH)
0.24 µM,1.06 µM,"Cc1nc2cc(NC(=O)N3CC4(CCN(Cc5cccc(Oc6ccc(Cl)cc6)c5)CC4)C3)ccc2o1 [Example 65, 7-[3-(4-Chloro-phenoxy)-benzyl]-2,7-diaza-spiro[3.5]nonane-2-carboxylic acid (2-methyl-benzooxazol-5-yl)-amide]",,
0.13 µM,0.6 µM,"O=C(Nc1noc2ncccc12)N1CC2(CCN(Cc3cccc(Oc4ccc(Cl)cc4)c3)CC2)C1 [Example 66, 7-[3-(4-Chloro-phenoxy)-benzyl]-2,7-diaza-spiro[3.5]nonane-2-carboxylic acid isoxazolo[5,4-b]pyridin-3-ylamide, trifluoroacetic acid salt]",,
0.16 µM,0.01 µM,"O=C(Nc1noc2cccnc12)N1CC2(CCN(Cc3cccc(Oc4ccc(Cl)cc4)c3)CC2)C1 [Example 67, 7-[3-(4-Chloro-phenoxy)-benzyl]-2,7-diaza-spiro[3.5]nonane-2-carboxylic acid isoxazolo[4,5-b]pyridin-3-ylamide, trifluoroacetic acid salt]",,
> 10 µM,> 10 µM,"O=C(Nc1cccc2cn[nH]c12)N1CC2(CCN(Cc3cccc(Oc4ccc(Cl)cc4)c3)CC2)C1 [Example 68, 7-[3-(4-Chloro-phenoxy)-benzyl]-2,7-diaza-spiro[3.5]nonane-2-carboxylic acid (1H-indazol-7-yl)-amide, trifluoroacetic acid salt]",,
> 10 µM,> 10 µM,"O=C(Nc1ccc2nccn2c1)N1CC2(CCN(Cc3cccc(Oc4ccc(Cl)cc4)c3)CC2)C1 [Example 69, 7-[3-(4-Chloro-phenoxy)-benzyl]-2,7-diaza-spiro[3.5]nonane-2-carboxylic acid imidazo[1,2-a]pyridin-6-ylamide, trifluoroacetic acid salt]",,
3 µM,2.4 µM,"COc1ccc(NC(=O)N2CC3(CCN(Cc4cccc(Oc5ccc(Cl)cc5)c4)CC3)C2)nn1 [Example 70, 7-[3-(4-Chloro-phenoxy)-benzyl]-2,7-diaza-spiro[3.5]nonane-2-carboxylic acid (6-methoxy-pyridazin-3-yl)-amide, trifluoroacetic acid salt]",,
> 10 µM,5 µM,"O=C(Nc1ccnc(C(F)(F)F)n1)N1CC2(CCN(Cc3cccc(Oc4ccc(Cl)cc4)c3)CC2)C1 [Example 71, 7-[3-(4-Chloro-phenoxy)-benzyl]-2,7-diaza-spiro[3.5]nonane-2-carboxylic acid (2-trifluoromethyl-pyrimidin-4-yl)-amide, trifluoroacetic acid salt]",,
1.7 µM,0.06 µM,"COc1nccc(NC(=O)N2CC3(CCN(Cc4cccc(Oc5ccc(Cl)cc5)c4)CC3)C2)n1 [Example 72, 7-[3-(4-Chloro-phenoxy)-benzyl]-2,7-diaza-spiro[3.5]nonane-2-carboxylic acid (2-methoxy-pyrimidin-4-yl)-amide, trifluoroacetic acid salt]",,
0.08 µM,0.45 µM,"O=C(Nc1cncc(F)c1)N1CC2(CCN(Cc3cccc(Oc4ccc(Cl)cc4)c3)CC2)C1 [Example 73, 7-[3-(4-Chloro-phenoxy)-benzyl]-2,7-diaza-spiro[3.5]nonane-2-carboxylic acid (5-fluoro-pyridin-3-yl)-amide, trifluoroacetic acid salt]",,
> 10 µM,2 µM,"O=C(Nc1ccnc2[nH]ccc12)N1CC2(CCN(Cc3cccc(Oc4ccc(Cl)cc4)c3)CC2)C1 [Example 74, 7-[3-(4-Chloro-phenoxy)-benzyl]-2,7-diaza-spiro[3.5]nonane-2-carboxylic acid (1H-pyrrolo[2,3-b]pyridin-4-yl)-amide, trifluoroacetic acid salt]",,
2.5 µM,0.4 µM,"Cc1nn(C)c2ncc(NC(=O)N3CC4(CCN(Cc5cccc(Oc6ccc(Cl)cc6)c5)CC4)C3)cc12 [Example 75, 7-(3-(4-chlorophenoxy)benzyl)-N-(1,3-dimethyl-1H-pyrazolo[3,4-b]pyridin-5-yl)-2,7-diazaspiro[3.5]nonane-2-carboxamide, trifluoroacetic acid salt]",,
> 10 µM,> 10 µM,"Cc1cc(NC(=O)N2CC3(CCN(Cc4cccc(Oc5ccc(Cl)cc5)c4)CC3)C2)no1 [Example 76, 7-(3-(4-chlorophenoxy)benzyl)-N-(5-methylisoxazol-3-yl)-2,7-diazaspiro[3.5]nonane-2-carboxamide, trifluoroacetic acid salt]",,

# Second part, the compound before the results:
SMILES,IC50 (FAAH; read-out: Assay 1 IC50),IC50 (Rat FAAH; read-out: Assay 2 IC50),IC50 (Rat FAAH),IC50 (FAAH)
"O=C(Nc1cc[nH]n1)N1CC2(CCN(Cc3cccc(Oc4ccc(Cl)cc4)c3)CC2)C1 [Example 56, 7-[3-(4-Chloro-phenoxy)-benzyl]-2,7-diaza-spiro[3.5]nonane-2-carboxylic acid (1H-pyrazol-3-yl)-amide, trifluoroacetic acid salt]",3.69 µM,,1.67 µM,
"O=C(Nc1cncc(Cl)c1)N1CC2(CCN(Cc3cccc(Oc4ccc(Cl)cc4)c3)CC2)C1 [Example 57, 7-[3-(4-Chloro-phenoxy)-benzyl]-2,7-diaza-spiro[3.5]nonane-2-carboxylic acid (5-chloro-pyridin-3-yl)-amide, trifluoroacetic acid salt]",0.26 µM,0.2 µM,,
"O=C(Nc1ccc(F)nc1)N1CC2(CCN(Cc3cccc(Oc4ccc(Cl)cc4)c3)CC2)C1 [Example 58, 7-[3-(4-Chloro-phenoxy)-benzyl]-2,7-diaza-spiro[3.5]nonane-2-carboxylic acid (6-fluoro-pyridin-3-yl)-amide, trifluoroacetic acid salt]",0.3 µM,0.69 µM,,
"COc1cc(NC(=O)N2CC3(CCN(Cc4cccc(Oc5ccc(Cl)cc5)c4)CC3)C2)ncn1 [Example 59, 7-[3-(4-Chloro-phenoxy)-benzyl]-2,7-diaza-spiro[3.5]nonane-2-carboxylic acid (6-methoxy-pyrimidin-4-yl)-amide, trifluoroacetic acid salt]",0.25 µM,0.08 µM,,
"O=C(Nc1ccc(Cl)nn1)N1CC2(CCN(Cc3cccc(Oc4ccc(Cl)cc4)c3)CC2)C1 [Example 60, 7-[3-(4-Chloro-phenoxy)-benzyl]-2,7-diaza-spiro[3.5]nonane-2-carboxylic acid (6-chloro-pyridazin-3-yl)-amide, trifluoroacetic acid salt]",0.3 µM,0.12 µM,,
"Cc1cc(NC(=O)N2CC3(CCN(Cc4cccc(Oc5ccc(Cl)cc5)c4)CC3)C2)nn1C [Example 61, 7-[3-(4-Chloro-phenoxy)-benzyl]-2,7-diaza-spiro[3.5]nonane-2-carboxylic acid (1,5-dimethyl-1H-pyrazol-3-yl)-amide, trifluoroacetic acid salt]",> 10 µM,> 10 µM,,
"Cn1cc(Br)c(NC(=O)N2CC3(CCN(Cc4cccc(Oc5ccc(Cl)cc5)c4)CC3)C2)n1 [Example 62, 7-[3-(4-Chloro-phenoxy)-benzyl]-2,7-diaza-spiro[3.5]nonane-2-carboxylic acid (4-bromo-1-methyl-1H-pyrazol-3-yl)-amide, trifluoroacetic acid salt]",> 10 µM,> 10 µM,,
"CCn1nccc1NC(=O)N1CC2(CCN(Cc3cccc(Oc4ccc(Cl)cc4)c3)CC2)C1 [Example 63, 7-[3-(4-Chloro-phenoxy)-benzyl]-2,7-diaza-spiro[3.5]nonane-2-carboxylic acid (2-ethyl-2H-pyrazol-3-yl)-amide, trifluoroacetic acid salt]",1.45 µM,0.5 µM,,
"O=C(Nc1nnn[nH]1)N1CC2(CCN(Cc3cccc(Oc4ccc(Cl)cc4)c3)CC2)C1 [Example 64, 7-[3-(4-Chloro-phenoxy)-benzyl]-2,7-diaza-spiro[3.5]nonane-2-carboxylic acid (2H-tetrazol-5-yl)-amide, trifluoroacetic acid salt]",,0.06 µM,,3.16 µM
